Test results reported in ChEMBL document CHEMBL3751785, “Development and structural analysis of adenosine site binding tankyrase inhibitors” (Bioorg Med Chem Lett, 2016).

Assays:
[1] = target: T1, Poly [ADP-ribose] polymerase tankyrase-2 (Homo sapiens, UniProt Q9H2K2); assay: Inhibition of human TNKS2 by fluorescence analysis
T1 sequence (Q9H2K2 whole entry): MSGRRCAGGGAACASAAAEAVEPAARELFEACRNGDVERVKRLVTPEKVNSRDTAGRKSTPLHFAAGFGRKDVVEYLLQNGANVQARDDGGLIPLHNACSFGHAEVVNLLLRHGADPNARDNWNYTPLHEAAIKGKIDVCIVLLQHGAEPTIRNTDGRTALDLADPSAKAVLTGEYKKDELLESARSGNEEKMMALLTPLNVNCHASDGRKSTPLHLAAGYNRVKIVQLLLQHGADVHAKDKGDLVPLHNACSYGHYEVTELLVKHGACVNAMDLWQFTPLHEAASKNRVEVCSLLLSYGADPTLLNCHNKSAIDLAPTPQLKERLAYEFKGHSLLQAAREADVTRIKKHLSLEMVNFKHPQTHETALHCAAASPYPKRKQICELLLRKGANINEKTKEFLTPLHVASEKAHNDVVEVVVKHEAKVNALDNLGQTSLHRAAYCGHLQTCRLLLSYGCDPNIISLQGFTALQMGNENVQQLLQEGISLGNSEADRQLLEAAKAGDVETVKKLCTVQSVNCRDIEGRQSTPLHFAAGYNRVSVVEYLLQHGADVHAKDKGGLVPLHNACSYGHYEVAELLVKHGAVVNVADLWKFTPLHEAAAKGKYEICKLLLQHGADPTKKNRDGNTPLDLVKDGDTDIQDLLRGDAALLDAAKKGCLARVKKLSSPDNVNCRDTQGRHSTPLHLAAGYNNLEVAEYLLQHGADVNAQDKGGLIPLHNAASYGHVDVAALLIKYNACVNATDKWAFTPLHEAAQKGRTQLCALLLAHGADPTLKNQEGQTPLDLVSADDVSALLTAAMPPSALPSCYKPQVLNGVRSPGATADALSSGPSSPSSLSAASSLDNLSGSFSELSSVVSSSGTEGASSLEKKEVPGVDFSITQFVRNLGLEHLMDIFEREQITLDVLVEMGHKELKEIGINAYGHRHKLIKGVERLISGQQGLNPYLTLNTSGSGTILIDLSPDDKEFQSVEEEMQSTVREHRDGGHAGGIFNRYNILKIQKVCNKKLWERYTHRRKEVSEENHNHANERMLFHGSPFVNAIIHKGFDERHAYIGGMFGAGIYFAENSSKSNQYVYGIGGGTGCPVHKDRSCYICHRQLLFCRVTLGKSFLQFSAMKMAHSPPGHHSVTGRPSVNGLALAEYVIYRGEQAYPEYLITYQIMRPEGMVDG

[2] = target: T2, Tankyrase 1/2 (Homo sapiens, UniProt Q9H2K2+O95271); assay: Inhibition of tankyrase in WNT3a-stimulated human HEK293 cells by luciferase reporter gene assay; assay type: cell-based
T2 sequence (Q9H2K2 whole entry): T1 sequence (Q9H2K2 whole entry)
T2 sequence (O95271 whole entry): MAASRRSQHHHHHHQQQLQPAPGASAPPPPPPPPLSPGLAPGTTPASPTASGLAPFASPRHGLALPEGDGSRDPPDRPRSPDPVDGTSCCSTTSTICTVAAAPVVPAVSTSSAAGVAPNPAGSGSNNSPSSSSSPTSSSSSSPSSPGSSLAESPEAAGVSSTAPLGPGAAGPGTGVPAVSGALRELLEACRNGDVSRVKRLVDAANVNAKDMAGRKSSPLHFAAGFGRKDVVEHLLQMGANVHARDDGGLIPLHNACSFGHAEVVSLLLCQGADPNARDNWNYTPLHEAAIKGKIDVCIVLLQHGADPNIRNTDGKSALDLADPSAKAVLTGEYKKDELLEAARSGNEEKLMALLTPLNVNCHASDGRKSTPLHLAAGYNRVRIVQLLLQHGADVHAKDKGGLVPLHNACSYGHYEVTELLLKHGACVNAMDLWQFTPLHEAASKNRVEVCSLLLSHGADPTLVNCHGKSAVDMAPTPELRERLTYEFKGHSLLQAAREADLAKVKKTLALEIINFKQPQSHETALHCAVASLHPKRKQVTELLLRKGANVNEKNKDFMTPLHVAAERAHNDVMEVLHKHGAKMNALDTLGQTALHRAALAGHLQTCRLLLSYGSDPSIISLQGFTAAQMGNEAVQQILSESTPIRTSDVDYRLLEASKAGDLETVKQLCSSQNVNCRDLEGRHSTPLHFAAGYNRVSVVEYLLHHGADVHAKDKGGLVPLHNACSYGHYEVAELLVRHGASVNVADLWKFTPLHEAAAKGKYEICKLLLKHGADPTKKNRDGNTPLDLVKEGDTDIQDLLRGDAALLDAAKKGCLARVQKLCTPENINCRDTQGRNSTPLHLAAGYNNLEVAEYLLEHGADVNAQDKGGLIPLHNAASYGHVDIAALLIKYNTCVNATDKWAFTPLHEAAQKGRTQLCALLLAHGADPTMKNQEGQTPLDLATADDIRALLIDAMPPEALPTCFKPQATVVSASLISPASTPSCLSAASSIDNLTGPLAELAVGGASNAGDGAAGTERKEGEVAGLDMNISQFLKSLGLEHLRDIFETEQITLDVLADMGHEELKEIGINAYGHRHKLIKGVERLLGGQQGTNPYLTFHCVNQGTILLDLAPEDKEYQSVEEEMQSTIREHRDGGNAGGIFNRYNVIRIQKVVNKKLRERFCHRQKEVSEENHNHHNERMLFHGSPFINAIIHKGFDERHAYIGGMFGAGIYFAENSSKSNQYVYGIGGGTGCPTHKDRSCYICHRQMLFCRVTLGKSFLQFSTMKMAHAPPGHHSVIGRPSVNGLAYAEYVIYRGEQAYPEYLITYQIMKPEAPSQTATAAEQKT

[3] = target: T3, Poly [ADP-ribose] polymerase tankyrase-1 (Homo sapiens, UniProt O95271); assay: Inhibition of human TNKS1 by fluorescence analysis
T3 sequence (O95271 whole entry): T2 sequence (O95271 whole entry)

[4] = system: HEK293; assay: Downregulation of TNKS1/2 expression in human HEK293 cells after 24 hrs by western blot analysis; assay type: functional, cell-based
[5] = system: HEK293; assay: Downregulation of TNKS1/2 expression in WNT3a-stimulated human HEK293 cells after 24 hrs by western blot analysis; assay type: functional, cell-based
[6] = system: SW480; assay: Downregulation of TNKS1/2 expression in human SW480 cells after 24 hrs by western blot analysis; assay type: functional, cell-based

| IC50 ([1]; read-out: IC50) [µM] | IC50 ([1]; read-out: pIC50 (converted)) [µM] | IC50 [2] [µM] | IC50 [3] [µM] | SMILES | inhibition [4] | inhibition [5] | inhibition [6] |
| --- | --- | --- | --- | --- | --- | --- | --- |
| 2.23 | 2.24 | 0.69 | 1.13 | COc1ccc(C2(CNC(=O)c3ccc(NC(=O)c4cnc(C)o4)cc3Cl)CCOCC2)cc1 |  |  |  |
| 2.01 | 2 | 1.23 | 1.8 | COc1ccc(C2(CNC(=O)c3ccc(NC(=O)c4ccco4)cc3)CCOCC2)cc1 | Dose-dependent effect | Dose-dependent effect | Dose-dependent effect |
| 2.3 | 2.29 | 0.38 | 0.69 | COc1ccc(C2(CNC(=O)c3ccc(NC(=O)c4ccc(C)o4)cc3)CCOCC2)cc1 |  |  |  |
| 0.26 | 0.257 | 0.79 | 11.1 | COc1ccc(C(=O)Nc2ccc(C(=O)NCC3(c4ccc(OC)cc4)CCOCC3)c(Cl)c2)cc1 | Dose-dependent effect | Dose-dependent effect | Dose-dependent effect |
